Measurements reported in the supplement of paper PMC10307832.

Columns and labels:
Assay in all cases: relative viability (nuclei count vs DMSO), 5 days (fraction); higher = more cells survive
NCI-H1651 = system: NCI-H1651
Outline: (§1)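 Nuclei were stained with Hoechst during a one-step fixation (final 0.05% Triton X-100, 1% formaldehyde, 1 ug/ml Hoechst) carried out 5 days after dosing, then counted on 4× images. The cells, lung cancer lines in 1536-well plates, had been dosed by pin tool the day after seeding with one drug alone or a fixed anchor-drug dose plus five library-drug doses (not always all listed) in √10 steps. Relative viability is the nuclei count in treated wells divided by that in vehicle wells, and each value is the median of duplicate plates.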

SW 1573 = system: SW 1573
Outline: as §1

NCI-H1944 = system: NCI-H1944
Outline: as §1

NCI-H2087 = system: NCI-H2087
Outline: as §1

NCI-H3122 = system: NCI-H3122
Outline: as §1

LCLC-97TM1 = system: LCLC-97TM1
Outline: as §1

EMC-BAC-2 = system: EMC-BAC-2
Outline: as §1

PC-14 = system: PC-14
Outline: as §1

UMC-11 = system: UMC-11
Outline: as §1

NCI-H2405 = system: NCI-H2405
Outline: as §1

NCI-H661 = system: NCI-H661
Outline: as §1

NCI-H650 = system: NCI-H650
Outline: as §1

NCI-H596 = system: NCI-H596
Outline: as §1

NCI-H2023 = system: NCI-H2023
Outline: as §1

NCI-H1915 = system: NCI-H1915
Outline: as §1

NCI-H322M = system: NCI-H322M
Outline: as §1

NCI-H2126 = system: NCI-H2126
Outline: as §1

NCI-H838 = system: NCI-H838
Outline: as §1

NCI-H1734 = system: NCI-H1734
Outline: as §1

NCI-H441 = system: NCI-H441
Outline: as §1

LXF-289 = system: LXF-289
Outline: as §1

NCI-H1793 = system: NCI-H1793
Outline: as §1

NCI-H1395 = system: NCI-H1395
Outline: as §1

Nc1cccc2c1CN(C1CCC(=O)NC1=O)C2=O (centres undefined) [Lenalidomide] + C[C@]1(O)C[C@@H](c2nc(-c3ccc4ccc(-c5ccccc5)nc4c3)c3c(N)nccn32)C1 [Linsitinib] (partner 1 µM)
relative viability (NCI-H1651; first compound 0.253 µM): 0.995
relative viability (NCI-H1651; first compound 0.8 µM): 0.968
relative viability (NCI-H1651; first compound 2.53 µM): 1.18
relative viability (NCI-H1651; first compound 8 µM): 0.973
relative viability (SW 1573; first compound 0.253 µM): 0.772
relative viability (SW 1573; first compound 0.8 µM): 0.866
relative viability (SW 1573; first compound 2.53 µM): 0.792
relative viability (SW 1573; first compound 8 µM): 0.791
relative viability (NCI-H1944; first compound 0.253 µM): 1.15
relative viability (NCI-H1944; first compound 0.8 µM): 1.27
relative viability (NCI-H1944; first compound 2.53 µM): 1.24
relative viability (NCI-H1944; first compound 8 µM): 0.948
relative viability (NCI-H2087; first compound 0.253 µM): 0.98
relative viability (NCI-H2087; first compound 0.8 µM): 0.919
relative viability (NCI-H2087; first compound 2.53 µM): 0.915
relative viability (NCI-H2087; first compound 8 µM): 1.09
relative viability (NCI-H3122; first compound 0.253 µM): 1.02
relative viability (NCI-H3122; first compound 0.8 µM): 1.04
relative viability (NCI-H3122; first compound 2.53 µM): 0.996
relative viability (NCI-H3122; first compound 8 µM): 0.998
relative viability (LCLC-97TM1; first compound 0.8 µM): 0.218
relative viability (LCLC-97TM1; first compound 2.53 µM): 0.157
relative viability (LCLC-97TM1; first compound 8 µM): 0.137
relative viability (EMC-BAC-2; first compound 0.253 µM): 0.786
relative viability (EMC-BAC-2; first compound 0.8 µM): 0.833
relative viability (EMC-BAC-2; first compound 2.53 µM): 0.823
relative viability (EMC-BAC-2; first compound 8 µM): 0.693
relative viability (PC-14; first compound 0.253 µM): 0.925
relative viability (PC-14; first compound 0.8 µM): 0.988
relative viability (PC-14; first compound 2.53 µM): 0.978
relative viability (PC-14; first compound 8 µM): 0.969
relative viability (UMC-11; first compound 0.253 µM): 1.03
relative viability (UMC-11; first compound 0.8 µM): 0.927
relative viability (UMC-11; first compound 2.53 µM): 1.08
relative viability (UMC-11; first compound 8 µM): 1.04
relative viability (NCI-H2405; first compound 0.253 µM): 0.816
relative viability (NCI-H2405; first compound 0.8 µM): 1.05
relative viability (NCI-H2405; first compound 2.53 µM): 0.9
relative viability (NCI-H2405; first compound 8 µM): 0.675
relative viability (NCI-H661; first compound 0.253 µM): 0.451
relative viability (NCI-H661; first compound 0.8 µM): 0.526
relative viability (NCI-H661; first compound 2.53 µM): 0.59
relative viability (NCI-H661; first compound 8 µM): 0.539
relative viability (NCI-H650; first compound 0.253 µM): 0.929
relative viability (NCI-H650; first compound 2.53 µM): 1
relative viability (NCI-H650; first compound 8 µM): 0.727
relative viability (NCI-H596; first compound 0.253 µM): 1.07
relative viability (NCI-H596; first compound 0.8 µM): 1.03
relative viability (NCI-H596; first compound 2.53 µM): 1.23
relative viability (NCI-H596; first compound 8 µM): 0.969
relative viability (NCI-H2023; first compound 0.253 µM): 0.68
relative viability (NCI-H2023; first compound 0.8 µM): 0.831
relative viability (NCI-H2023; first compound 2.53 µM): 0.681
relative viability (NCI-H2023; first compound 8 µM): 0.695
relative viability (NCI-H1915; first compound 0.253 µM): 1.08
relative viability (NCI-H1915; first compound 0.8 µM): 1.12
relative viability (NCI-H1915; first compound 2.53 µM): 1.06
relative viability (NCI-H1915; first compound 8 µM): 1.11
relative viability (NCI-H322M; first compound 0.253 µM): 0.912
relative viability (NCI-H322M; first compound 0.8 µM): 1.06
relative viability (NCI-H322M; first compound 2.53 µM): 0.856
relative viability (NCI-H322M; first compound 8 µM): 0.708
relative viability (NCI-H2126; first compound 0.253 µM): 0.692
relative viability (NCI-H2126; first compound 0.8 µM): 0.681
relative viability (NCI-H2126; first compound 2.53 µM): 0.702
relative viability (NCI-H2126; first compound 8 µM): 0.486
relative viability (NCI-H838; first compound 0.253 µM): 1.02
relative viability (NCI-H838; first compound 0.8 µM): 0.98
relative viability (NCI-H838; first compound 2.53 µM): 1.13
relative viability (NCI-H838; first compound 8 µM): 0.968
relative viability (NCI-H1734; first compound 0.253 µM): 0.878
relative viability (NCI-H1734; first compound 0.8 µM): 1
relative viability (NCI-H1734; first compound 2.53 µM): 0.934
relative viability (NCI-H1734; first compound 8 µM): 0.688
relative viability (NCI-H441; first compound 0.253 µM): 0.547
relative viability (NCI-H441; first compound 0.8 µM): 0.345
relative viability (NCI-H441; first compound 2.53 µM): 0.692
relative viability (NCI-H441; first compound 8 µM): 0.555
relative viability (LXF-289; first compound 0.253 µM): 0.961
relative viability (LXF-289; first compound 0.8 µM): 0.994
relative viability (LXF-289; first compound 2.53 µM): 1.01
relative viability (LXF-289; first compound 8 µM): 1.03
relative viability (NCI-H1793; first compound 0.253 µM): 1.02
relative viability (NCI-H1793; first compound 0.8 µM): 0.728
relative viability (NCI-H1793; first compound 2.53 µM): 1.13
relative viability (NCI-H1793; first compound 8 µM): 0.512
relative viability (NCI-H1395; first compound 0.253 µM): 0.968
relative viability (NCI-H1395; first compound 2.53 µM): 1.23
relative viability (NCI-H1395; first compound 8 µM): 1.03
